Results on 20 compounds are retold here after PubChem BioAssay (NCI).

SMILES strings stand for the structures.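 Tested at 5 concentrations; 48 h exposure; 96-well plates; endpoints linearly interpolated, else capped at highest concentration. GI50 is the concentration that inhibits growth by half. Definition used: TGI = concentration required for complete inhibition of growth.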

Common to all, as to assay: growth of human tumour cells (NCI), 48 h
Assay [1] has as its system IGROV1 ovarian.
The test system of assay [2] is KM12 colon.
Assay [3] relates to LOX IMVI melanoma.
For assay [4], the system named is OVCAR-8 ovarian.
Assay [5] relates to SW-620 colon.
In assay [6] the test system is UO-31 renal.
Assay [7] concerns HCT-15 colon.
The subject of assay [8] is MDA-MB-231 breast.
The subject of assay [9] is NCI-H226 lung.
The test system of assay [10] is MDA-MB-435.

For `Nc1ccccc1NC(=O)c1ccc(CN2CCC/C(=C\c3cccc(Cl)c3)C2=O)cc1`, the GI50 in assay [1] was 0.337 µM; in assay [2], 0.378 µM; in [3], 0.0664 µM; in assay [4] it was 0.334 µM; in assay [5], 0.0539 µM; in assay [6] it was 1.4 µM. Also, the GI50 in assay [7] is 0.0419 µM; in [8], 0.584 µM; in assay [9], 2.01 µM. For the same compound, the TGI in [1] is 13.6 µM; in [2], 13.4 µM; in assay [3], 2.06 µM; in assay [4], above 100 µM; in [5] it was above 100 µM; in assay [6], 6.14 µM. Further, the TGI in assay [7] is above 100 µM; in [8], 7.93 µM; in assay [9], 7.06 µM.
Regarding `CC1(C)C(=S)C(C)(C)C1=S`, the TGI in assay [10], in assay [1], in assay [2], in [3], in assay [5] and in [6] was above 100 µM throughout. Also, the TGI in [7], in assay [8] and in assay [9] was above 100 µM in each case.
For the compound `CC1=C([Se]CC(OC(=O)[C@@H](CO)NC(=O)OC(C)(C)C)C(=O)NC(C)(C)C)C(=O)c2ccccc2C1=O` (stereo not given in full), the GI50 in [10] is 2.01 µM; in assay [1], 1.66 µM; in assay [2], 1.5 µM; in assay [3], 1.6 µM; in assay [5] it was 1.77 µM; in [6], 1.45 µM. In addition, the GI50 was 1.99 µM in [7], 1.62 µM in assay [8] and 1.96 µM in assay [9]. In addition, the TGI in assay [10] is 4.1 µM; in [1] it was 3.27 µM; in assay [2], 2.89 µM; in [3], 3.02 µM; in [5] it was 3.33 µM; in [6], 2.94 µM. Besides, the TGI in assay [7] is 3.97 µM; in [8] it was 3.14 µM; in [9], 4.21 µM.
In the case of `O=C(CCCc1ccccn1)c1ccccc1`, the TGI in [10], in [1], in assay [3], in assay [4], in assay [5] and in assay [6] was above 100 µM in each case. In addition, the TGI in assay [7], in assay [8] and in assay [9] was above 100 µM each time.
`CN(C)CCN=Cc1c2ccccc2c(=O)n2c1oc1ccccc12`: the GI50 in [10] is 10.1 µM; in assay [1], 10.6 µM; in [2] it was 8.8 µM; in [3], 4.18 µM; in [4], 5.89 µM; in [6], 6.67 µM. Besides, the results for the GI50 in assay [7], in assay [8] and in assay [9] were 5.37 µM, 12.5 µM and 10 µM, respectively. Besides, the TGI in [10] worked out at 21.7 µM; in assay [1] it was 27.6 µM; in [2] it was 21.7 µM; in assay [3], 16.1 µM; in [4], 21.5 µM; in [6], 28.6 µM. In addition, the TGI was determined as 22.1 µM in [7], 29 µM in assay [8] and 36.7 µM in [9].
`c1ccc(-c2nn(-c3ccccc3)[n+](-c3cccc4ccccc34)n2)cc1`: the GI50 in assay [10] was 0.961 µM; in [1] it was 1.59 µM; in assay [2], 0.701 µM; in assay [3] it was 1.23 µM; in assay [4], 1.85 µM; in assay [5], 1.44 µM. For the same compound, the results for the GI50 in [6], in [7] and in assay [8] were 14 µM, 31.5 µM and 0.787 µM, respectively. Further, the TGI in assay [10] is 2.67 µM; in assay [1], 40.8 µM; in assay [2] it was 11.3 µM; in assay [3], above 100 µM; in [4] it was 54.5 µM; in [5], 15.9 µM. Moreover, the TGI in [6] is above 100 µM; in [7], above 100 µM; in assay [8], 12.9 µM.
Turning to `NC(=O)C(NC=O)c1ccccc1` (stereo not given), the TGI in assay [10], in assay [1], in [2], in [3], in assay [4] and in assay [5] was above 100 µM throughout. Moreover, the TGI in [6], in assay [7] and in [8] was above 100 µM throughout.
Take `CCCCN(CCCC)CCCN=c1nc2c(c(N)n1-c1ccccc1)c(=S)n(-c1ccccc1)c(=S)n2-c1ccccc1`: the GI50 was 0.301 µM in assay [10]; 1.9 µM in [1]; 0.415 µM in assay [2]; 0.303 µM in assay [3]; 0.568 µM in assay [5]; 0.389 µM in assay [6]. Moreover, the results for the GI50 in [7], in [8] and in [9] were 0.309 µM, 0.555 µM and 1.61 µM, respectively. Further, the TGI in assay [10] worked out at 0.93 µM; in [1], 3.79 µM; in [2], 1.46 µM; in assay [3], 0.773 µM; in assay [5], 2.62 µM; in [6] it was 1.02 µM. The TGI worked out at 1.14 µM in assay [7], 1.53 µM in assay [8] and 3.11 µM in assay [9].
Take `COc1cccc(C2NC(=S)NC(C)=C2C(=O)Nc2ccc(F)c(Cl)c2)c1` (stereo not given): the GI50 in assay [10] is 27.3 µM; in assay [1] it was 27.6 µM; in [2] it was 18.2 µM; in [3], 17.6 µM; in [4] it was 34.6 µM; in assay [5], above 50 µM. The GI50 is 20.4 µM in [6], 23.7 µM in assay [7] and 29 µM in [8]. Moreover, the TGI in assay [10], in [1], in assay [2], in assay [3], in assay [4] and in assay [5] was above 50 µM in each case. In addition, the TGI in assay [6], in assay [7] and in assay [8] was above 50 µM each time.
Consider `COC(=O)[C@@]1(C)CC[C@]2(C)CC[C@]3(C)C4=CC=C5C(=CC(=O)C(O)=C5C)[C@]4(C)CC[C@@]3(C)[C@@H]2C1`, for which the GI50 in assay [10] is 0.195 µM; in assay [1] it was 0.198 µM; in assay [2] it was 0.369 µM; in [3] it was 0.174 µM; in assay [5], 0.165 µM; in assay [6], 0.127 µM. For the same compound, the GI50 in assay [7] is 0.171 µM; in [8], 0.171 µM; in assay [9] it was 0.294 µM. In addition, the TGI in [10] came out at 0.503 µM; in assay [1], 0.46 µM; in assay [2], 1.49 µM; in [3], 0.325 µM; in assay [5], 0.414 µM; in assay [6] it was 0.261 µM. Moreover, the TGI in assay [7] was 0.421 µM; in assay [8], 0.395 µM; in [9] it was 0.739 µM.
In the case of `CC[O-].Cc1ccc2cccc([O-])c2n1.Cc1ccc2cccc([O-])c2n1.Cc1ccc2cccc([O-])c2n1.[Ti+4]`, the GI50 in assay [1] is 43.2 µM; in [2] it was 20.9 µM; in [3], 18.2 µM; in assay [4], 12.4 µM; in assay [5], 29.6 µM; in assay [6], above 100 µM. Moreover, the GI50 was 42.4 µM in assay [7] and above 59.6 µM in assay [9]. Further, the TGI is above 100 µM in assay [1]; 74.8 µM in assay [2]; 47.9 µM in assay [3]; 47.1 µM in assay [4]; above 61.1 µM in assay [5]; above 100 µM in assay [6]. Besides, the TGI in [7] and in assay [9] was above 100 µM in each case.
Turning to `COc1ccc(Cc2cnc(NC(=O)c3sc4ccccc4c3Cl)s2)cc1`, the GI50 in assay [1] is 0.608 µM; in assay [2], 0.383 µM; in assay [3], 1.52 µM; in assay [4] it was 0.508 µM; in [5], 0.409 µM; in [6], 0.843 µM. Moreover, the GI50 in [7] was 0.378 µM; in [8] it was 0.585 µM; in assay [9], 1.43 µM. In addition, the TGI in [1], in assay [2], in assay [3], in [4], in assay [5] and in assay [6] was above 100 µM in each case. Further, the TGI in assay [7], in [8] and in [9] was above 100 µM throughout.
For the compound `O=C(Nc1ccccc1Br)c1cccc([N+](=O)[O-])c1O`, the TGI is above 59.7 µM in assay [1]; 19.3 µM in [2]; 10.7 µM in [3]; above 71.4 µM in [4]; above 100 µM in assay [5]; 5.73 µM in [6]. The TGI in [7] stood at 25.4 µM; in [9], 14.8 µM.
`CCC[CH2][Sn]([CH2]CCC)([O]C(=O)c1nccnc1N)[O]C(=O)c1nccnc1N`: the GI50 was 1.33 µM in assay [1]; 1.42 µM in assay [2]; 0.365 µM in assay [3]; 1.21 µM in assay [4]; 0.319 µM in [5]; 1.45 µM in assay [6]. Besides, the GI50 in assay [7] is 1.15 µM; in assay [9] it was 1.33 µM. Besides, the TGI in assay [1] is 2.68 µM; in assay [2], 2.74 µM; in assay [3] it was 1.48 µM; in assay [4], 2.45 µM; in assay [5] it was 1.26 µM; in [6], 2.77 µM. Besides, the TGI in assay [7] was found to be 2.37 µM; in [9] it was 2.63 µM.
For `COc1cc2cc[n+]3c4cc(OC)c(OC)cc4c(C)cc3c2cc1OC`, the TGI in [1], in assay [2], in assay [3], in assay [4], in [5] and in [6] was above 100 µM in each case. Besides, the TGI in assay [7] and in assay [9] was above 100 µM in each case.
As for `CC[CH2][Sn]([Cl])([Cl])[CH2]CC`, the GI50 is 12.5 µM in assay [10]; 16 µM in assay [2]; 2.8 µM in assay [3]; 14.7 µM in assay [4]; 2.61 µM in [5]; 4.47 µM in [6]. Besides, the values for the GI50 in assay [7], in [8] and in assay [9] were 11.3 µM, 5.16 µM and 4.02 µM, respectively. The TGI in assay [10] was found to be 26.9 µM; in [2], 30.9 µM; in assay [3] it was 11.4 µM; in assay [4] it was 30.1 µM; in assay [5], 11.5 µM; in assay [6], 19.5 µM. Further, the results for the TGI in assay [7], in [8] and in [9] were 25.5 µM, 18.9 µM and 16.5 µM, respectively.
Take `CNC(C)C(=O)N[C@H](C(=O)N1CCC[C@@H]1CN(CCc1ccccc1)C(=O)C(F)(F)F)[C@H](C)OCC#CC#CCO[C@H](C)[C@H](NC(=O)[C@H](C)NC)C(=O)N1CCC[C@H]1CN(CCc1ccccc1)C(=O)C(F)(F)F` (stereo not given in full): the GI50 in [10] was 1.63 µM; in assay [1], 2.13 µM; in assay [2] it was 1.71 µM; in assay [4] it was 0.67 µM; in [5], 1.63 µM; in [6], 2.14 µM. Further, the GI50 in assay [7] was 1.76 µM; in assay [8], below 0.01 µM; in assay [9], 1.54 µM. Besides, the TGI in assay [10] came to 3.46 µM; in assay [1] it was 4.38 µM; in assay [2] it was 3.25 µM; in assay [4], 2.19 µM; in [5], 3.16 µM; in [6] it was 3.98 µM. The TGI in assay [7] is 3.75 µM; in [8] it was below 0.01 µM; in assay [9], 3.06 µM.
Turning to `O=C(NNC(=O)c1ccncc1)c1ccncc1`, the TGI in [10], in assay [1], in assay [2], in [3], in [4] and in [5] was above 100 µM each time. The TGI in assay [6], in [7] and in assay [8] was above 100 µM in each case.
On to `CC1=C(c2cc(C(=O)Nc3ccc(Cl)c(Cl)c3)nc(N)n2)Sc2ccccc2N1`, for which the TGI in assay [1], in assay [2], in assay [3], in assay [4], in assay [5] and in [6] was above 100 µM each time. The TGI in assay [7] and in [9] was above 100 µM throughout.
As to `COC(=O)C1CCC(Nc2cccc(C(F)(F)F)c2)=N1` (stereo not given), the TGI in assay [1], in [2], in assay [3], in assay [4], in assay [5] and in assay [6] was above 100 µM in each case. Also, the TGI in [7] and in assay [9] was above 100 µM in each case.
